The test system of one data set is fat-fed hamsters. Description: Oral administration to fat-fed hamsters, reduction of VLD/LDL cholesterol and TG plasma levels. Type of data set: in vivo, hamster. The conditions noted are these: hamsters fed 0.2% cholesterol and 10% coconut oil diet, once a day for 3 days, reduction in VLD/LDL cholesterol and TG plasmatic levels. On the procedure: The in vivo profile of the compounds is evaluated by oral administration of the compounds of the invention to fat-fed hamsters. Measurements of VLD/LDL cholesterol and triglycerides upon treatment allow the activity to be determined.
Compounds were prepared for oral administration by milling with 0.5% hydroxypropylmethylcellulose and 5% Tween 80. Hamsters were fed for 2 weeks with a diet containing 0.2% of cholesterol and 10% of coconut oil. Then compounds were administrated once a day for 3 days, from 20 to 0.2 mg/kg. Plasma lipid levels including total cholesterol, VLD/LDL cholesterol, VLD/LDL triglycerides and HDL-cholesterol were determinated after ultracentrifugation (density 1.063 g/ml to separate VLD/LDL fraction and HDL fraction) using the Biomerieux enzymatic kit. Reductions in VLD/LDL cholesterol and TG plasmatic levels were calculated taking solvant treated animals as control and ED50 of each compound was determined.

The test system of another data set is LDL-r promoter. Description: LDL-r promoter luciferase reporter gene assay in stably transfected HepG2 cells. In kind it is cell-based, human. The settings on record: HepG2 cells with LDL-r promoter-luciferase construct, 24 hours incubation, RPMI medium with 2% lipoprotein-deficient serum, induction of luciferase activity, read-out: In vitro (IC50). On the procedure:
The ability of the compounds of the invention to induce LDL-r expression by human hepatocytes in vitro is determined using a human hepatocarcinoma cell line, Hep G2, as a model system. A reporter gene assay using the LDL-r promoter in front of the reporter gene Luciferase is used as a primary screen.
HepG2 cells, stably transfected with a construct comprising the LDL-r promoter and the luciferase reporter gene, were seeded at 50.000 cells/well in 96 well plates. After 1 day, cells were incubated with compounds for 24 hours in RPMI medium containing 2% of lipoprotein-deficient serum. Compounds were tested from 10^−6M to 10^−9M. Cell lysates were prepared and the luciferase activity was measured by the luciferase assay system (Promega). Induction of luciferase activity was calculated taking untreated cells as control and ED50 of each compounds was determinated compared to the ED50 of an internal standart.

Read-outs that look alike come from different tables or passages of the source.

For orientation: melting point means the temperature, or range, at which the solid turns liquid. In turn, `CCc1ccc(C2CCN(CCCCNC(=O)c3ccc(-c4ccc(C(F)(F)F)cc4)cc3)CC2)c(OCC2CC2)c1` [Example 2, 4′-Trifluoromethyl-biphenyl-4-carboxylic Acid [4-[4-(2-cyclopropylmethoxy-4-ethyl-phenyl)-piperidin-1-yl]-butyl]-amide] came in with a melting point of 247 to 249 °C. As usually defined, the IC50 is the concentration that inhibits the measured activity by half. For `COc1c(C2CCN(CCCCNC(=O)c3ccc(-c4ccc(Cl)cc4)cc3)CC2)ccc2ccccc12` [Example 3, 4′-Chloro-biphenyl-4-carboxylic Acid {4-[4-(1-methoxy-naphtalen-2-yl)-piperidin-1-yl]-butyl}-amide], in the data set on fat-fed hamsters, the “In vivo (ED50)” value is listed as 2 mg/kg. In the data set with LDL-r promoter, the IC50 amounted to 10 nM. Consider `CCOc1cc(CC)ccc1C1CCN(CCCCNC(=O)c2ccc(-c3ccc(C#N)cc3)cc2)CC1` [Example 5, 4′-Cyano-biphenyl-4-carboxylic Acid {4-[4-(2-ethoxy-4-ethyl-phenyl)-piperidin-1-yl]-butyl}-amide], for which the melting point came to 165 °C. Further, the ED50 with fat-fed hamsters (Mesocricetus auratus, 72 h, read-out: In vivo (ED50)) turned out to be 2 mg/kg. For the same compound, the IC50 in the data set with LDL-r promoter (Homo sapiens) was found to be 10 nM. As for `COc1c(C2CCN(CCCCNC(=O)c3ccc(-c4ccc(C#N)cc4)cc3)CC2)ccc2c1CCCC2` [Example 11, 4′-Cyano-biphenyl-4-carboxylic Acid {4-[4-(1-methoxy-5,6,7,8-tetrahydro-naphtalen-2-yl)-piperidin-1-yl]-butyl}-amide], the “In vivo (ED50)” value in the data set with fat-fed hamsters is given as 1 mg/kg. The IC50 with LDL-r promoter turned out to be 10 nM. Turning to `CCOc1cc(CC)ccc1C1CCN(CCCCNC(=O)c2ccc(-c3ccc(S(C)(=O)=O)cc3)cc2)CC1` [Example 12, 4′-Methanesulfonyl-biphenyl-4-carboxylic Acid {4-[4-(2-ethoxy-4-ethyl-phenyl)-piperidin-1-yl]-butyl}-amide], the melting point lay within 179 to 180 °C. On the same count and under the same terms, the figure for `CCc1ccc(C2CCN(CCCCNC(=O)c3ccc(-c4ccc(C#N)cc4)cc3)CC2)c(O)c1` [Example 14, 4′-Cyano-biphenyl-4-carboxylic Acid {4-[4-(2-hydroxy-4-ethyl-phenyl)-piperidin-1-yl]-butyl}-amide] is 252 °C. On the same count and under the same terms, the figure for `Cc1ccc(C2CCN(CCCCNC(=O)c3ccc(-c4ccc(C#N)cc4)cc3)CC2)c(O)c1` [Example 18, 4′-Cyano-biphenyl-4-carboxylic Acid {4-[4-(2-hydroxy-4-methyl-phenyl)-piperidin-1-yl]-butyl}-amide] is 184 °C.

The values are drawn from patent US20040147557A1, “Aryl piperidine derivatives as inducers of ldl-receptor expression” (priority 2003, published 2004).
